Laboratory results taken from patent publication US20030144346A1, “Methods and compositions for regulation of 5-alpha reductase activity” (priority 1997, published 2003).
Values joined by “and” are separate entries in the source; they are usually repeats but may differ in a detail not shown here. Equal entries are not always repeated. Blank lines part the entries; values can stand above or below the molecule they belong to.

Key:
[1] = system: human prostate and breast tumors; assay: Human prostate and breast tumors in animal models; type: in vivo, nude mice
Method: A compound of this invention can be used to treat breast or prostate cancer. […] By way of example, human prostate cancer PC-3 cells are grown in culture medium. About one million cells are injected into male nude mice and the growth of tumors followed. Within two weeks, the tumor grows to about 100 mm^3. Three tumor bearing mice are injected with a test compound each day.

[2] = Body and organ weight loss; type: in vivo; conditions: compared with ECG
Method: By way of example, male Sprague-Dawley rats (body weight 180 g±10 g) are used. Compounds are intraperitoneally injected into rats in one group each day for 7 days. Rats in the control group receive 0.1 ml 30% ethanol. Body and organ weights are determined.

[3] = molecular target: T1, type 1 human 5α-reductase (HRED1) (Homo sapiens, UniProt P18405); assay: Whole cell assay of 5α-reductase, type 1 isoenzyme; type: cell-based; design: expressed in transfected cells; host or cells: rat 1A cells infected with pMV7 retrovirus;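 also: intact rat 1A cells engineered to express the human type 1 5α-reductase isozyme serve as the enzyme source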
T1 sequence (P18405 1-259): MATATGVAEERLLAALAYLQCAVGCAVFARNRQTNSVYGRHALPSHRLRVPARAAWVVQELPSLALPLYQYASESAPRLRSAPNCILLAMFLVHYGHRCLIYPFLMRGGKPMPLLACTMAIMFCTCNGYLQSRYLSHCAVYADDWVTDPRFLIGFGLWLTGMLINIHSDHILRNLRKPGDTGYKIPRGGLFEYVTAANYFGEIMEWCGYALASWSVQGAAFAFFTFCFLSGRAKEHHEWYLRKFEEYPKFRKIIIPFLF

[4] = molecular target: T2, type 2 human 5α-reductase (HRED2) (Homo sapiens, UniProt P31213); assay: Whole cell assay of 5α-reductase, type 2 isoenzyme; type: cell-based; design: expressed in transfected cells; host or cells: rat 1A cells infected with pMV7 retrovirus; conditions: for inhibition at 100 µM: Table 7; for IC50: Table 7, read-out: HCRED2 IC50;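 as to all read-outs here: intact rat 1A cells genetically modified to carry human type 2 5α-reductase served as the enzyme source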
T2 sequence (P31213 1-254): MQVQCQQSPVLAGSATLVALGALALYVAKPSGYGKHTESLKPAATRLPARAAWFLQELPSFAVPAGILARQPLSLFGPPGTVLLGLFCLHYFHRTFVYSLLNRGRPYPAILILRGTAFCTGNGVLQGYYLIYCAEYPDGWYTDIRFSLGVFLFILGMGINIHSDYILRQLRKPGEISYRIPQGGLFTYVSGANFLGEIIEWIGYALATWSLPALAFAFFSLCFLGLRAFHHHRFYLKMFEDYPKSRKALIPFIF

[5] = molecular target: T1, type 1 human 5α-reductase (HRED1); assay: Cell free assay of 5α-reductase, microsomes of rat 1A cells expressing type 1 isoenzyme (HRED1); type: biochemical; design: expressed in transfected cells; host or cells: rat 1A cells infected with pMV7 retrovirus; microsomes;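 also: microsomes from rat 1A cells expressing human type 1 5α-reductase, conversion of radiolabeled testosterone to dihydrotestosterone quantified by thin layer chromatography with radioanalytic scanning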
[6] = system: 5α-reductases isozyme 2 and isozyme 1; conditions: Russell and Wilson, 1994; cited from earlier work
[7] = molecular target: T2, type 2 human 5α-reductase (HRED2); assay: Cell free assay of 5α-reductase, microsomes of rat 1A cells expressing type 2 isoenzyme (HRED2); type: biochemical; design: expressed in transfected cells; host or cells: rat 1A cells infected with pMV7 retrovirus; microsomes;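 also: labeled testosterone and its product dihydrotestosterone measured in microsomal reaction extracts via thin layer chromatography plus radioanalytic scanning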
[8] = 100 μM, whole cell assay, Table 7
[9] = whole cell assay, Table 7, read-out: HCRED1 IC50
[10] = 100 uM, cell free assay, Table 2, read-out: HRED1 % Inhibition @ 100 uM
[11] = cell free assay, Table 2 catechols, read-out: HRED1 IC50
[12] = 100 uM, cell free assay, Table 2, read-out: HRED2 % Inhibition @ 100 uM
[13] = cell free assay, Table 2 catechols, read-out: HRED2 IC50

SMILES: O=C(O[C@@H]1Cc2c(O)cc(O)cc2O[C@@H]1c1cc(O)c(O)c(O)c1)c1cc(O)c(O)c(O)c1 [Epigallocatechin Gallate]
effect on size of human prostate and breast tumors [1]: surprisingly effective in suppressing and even reducing the size
reduction of body weight [2]: significantly more effective
inhibitory activity in the whole cell assay, type 1 isoenzyme, in words ([3]; whole cell assay): low
HRED2 % Inhibition @ 100 μM ([4]; Table 7, listed as EGCG): 5% and 0%
inhibitory activity against type 1 isoenzyme, in words ([5]; cell-free assay): high

SMILES: CC(C)(C)NC(=O)[C@H]1CC[C@H]2[C@@H]3CC[C@H]4NC(=O)C=C[C@]4(C)[C@H]3CC[C@]12C [Finasteride]
affinity for isozyme 2 relative to isozyme 1 [6]: 30 fold

SMILES: CCCCCCCC/C=C\CCCCCCCC(=O)O [Oleic Acid, Oleic Acid C18:1 CIS 9]
inhibition at 100 µM [3, 8]: 58%
IC50 ([3]; HCRED1 IC50, whole cell assay, Table 7): 83 µM
inhibition at 100 µM [4]: 45%
IC50 [4]: > 100 µM
IC50 [5]: 10 µM
inhibition at 100 µM ([5]; read-out: HRED1 % Inhibition @ 100 μM): 99%
IC50 [7]: 42 µM
inhibition at 100 µM ([7]; read-out: HRED2 % Inhibition @ 100 μM): 86%

inhibition at 100 µM [3, 8]: 5%
IC50 [3, 9]: > 100 µM
inhibition at 100 µM [4]: 0%
IC50 [4]: > 100 µM
inhibition at 100 µM [5, 10]: 0%
IC50 [5, 11]: > 100 µM
inhibition at 100 µM [7, 12]: 0%
IC50 [7, 13]: > 100 µM
SMILES: CCCOC(=O)c1cc(O)c(O)c(O)c1 [Propylgallate]

SMILES: O=C1c2ccccc2C(=O)c2c(O)c(O)cc(O)c21 [Purpurin]
inhibition at 100 µM [3, 8]: 47%
IC50 [3, 9]: > 100 µM
inhibition at 100 µM [4]: 7%
IC50 [4]: > 100 µM
IC50 ([5]; cell free assay, Table 4 quinones, read-out: HRED1 IC50): 2 µM
IC50 ([7]; cell free assay, Table 4 quinones, read-out: HRED2 IC50): > 100 µM

HRED1 % Inhibition @ 100 μM [3, 8]: 5%
inhibition at 100 µM [3, 8]: 7%
IC50 [3, 9]: > 100 µM
HRED2 % Inhibition @ 100 μM ([4]; Table 7, 100 µM): 6%
IC50 [4]: > 100 µM
inhibition at 100 µM [5, 10]: 60%
IC50 [5, 11]: 70 µM
inhibition at 100 µM [7, 12]: 28%
IC50 [7, 13]: > 100 µM
SMILES: Oc1cccc(O)c1O [Pyrogallol]

SMILES: O=c1c(O)c(-c2ccc(O)c(O)c2)oc2cc(O)cc(O)c12 [Quercitin]
inhibition at 100 µM [3, 8]: 15%
IC50 [3, 9]: > 100 µM
inhibition at 100 µM [4]: 29%
IC50 [4]: > 100 µM
inhibition at 100 µM ([5]; 100 uM, cell free assay, Table 1, read-out: HRED1 % Inhibition @ 100 uM): 96%
IC50 ([5]; cell free assay, Table 1 flavanoids, read-out: HRED1 IC50): 23 µM
IC50 ([5]; cell-free assay, read-out: IC50, type 1 isoenzyme): < 100 µM
inhibition at 100 µM ([7]; 100 uM, cell free assay, Table 1, read-out: HRED2 % Inhibition @ 100 uM): 14%
IC50 ([7]; cell free assay, Table 1 flavanoids, read-out: HRED2 IC50): > 100 µM

inhibition at 100 µM [3, 8]: 10%
IC50 [3, 9]: > 100 µM
inhibition at 100 µM [4]: 23%
IC50 [4]: > 100 µM
inhibition at 100 µM ([5]; 100 μM, cell free assay, Table 6, read-out: HRED1 % Inhibition @ 100 μM): 71%
IC50 ([5]; cell free assay, Table 6 fatty acids, read-out: HRED1 IC50): 27 µM
inhibition at 100 µM ([7]; 100 μM, cell free assay, Table 6, read-out: HRED2 % Inhibition @ 100 μM): 35%
IC50 ([7]; cell free assay, Table 6 fatty acids, read-out: HRED2 IC50): > 100 µM
SMILES: CCCCCCCCCCCCCCCCCC(=O)O [Stearic Acid, Stearic Acid C18:0]

SMILES: COc1cc(CCC(=O)CC(=O)CCc2ccc(O)c(OC)c2)ccc1O [Tetrahydrocurcumin]
inhibition at 100 µM [3, 8]: 81%
IC50 [3, 9]: 36 µM
inhibition at 100 µM [4]: 92%
IC50 [4]: 7 µM
IC50 ([5]; cell free assay, Table 3 curcumin and related compounds, read-out: HRED1 IC50): 80 µM
inhibition at 100 µM ([5]; read-out: HRED1 % Inhibition @ 100 uM): 56%
inhibition at 100 µM ([7]; read-out: HRED2 % Inhibition @ 100 uM): 73%
IC50 ([7]; read-out: HRED2 IC50): 29 µM
